We go through 13 molecules from patent publication US20210283107A1, “Methods to Expand the Spectrum of Gram-Positive Antibiotics” (NORTH CAROLINA STATE UNIVERSITY, priority 2016, published 2021).

SMILES strings stand for the structures. Converted amounts (≈) assume the structure as drawn. “And” between values parts separate entries of the source, which are not always exact repeats. Equal entries are not always repeated.

In assay [1] the test system is A. baumannii strain 5075 (AB5075). Put plainly: Macrolide sensitization / antibiotic resensitization: antibiotic MIC in presence of compound (broth microdilution). It counts as cell-based, Acinetobacter baumannii. The note with it: AB5075; for MIC: Acinetobacter baumannii, antibiotic alone, no compound (control row), read-out: MIC (μg/mL) of the antibiotic. Here is the method: A. baumannii 5075 was plated on LB agar, then grown in CAMHB for 6-8 h and this culture was used to inoculate fresh CAMHB (5×10^5 CFU/mL). The resulting suspension was aliquoted (5 mL) into culture tubes and compound, from 100 mM DMSO stock, was added. One aliquot was not treated (control). 1 mL of each sample was transferred to a new culture tube and antibiotic was added. Rows 2-12 of a 96-well microtiter plate were filled with 100 μL/well from the remaining 4 mL bacterial subcultures, allowing the concentration of compound to be kept uniform throughout the antibiotic dilution procedure. Samples containing antibiotic were aliquoted (200 μL) into the corresponding first row wells of the microtiter plate. Row 1 wells were mixed 6 to 8 times then 100 μL was withdrawn and transferred to row 2. Row 2 wells were mixed 6 to 8 times, followed by a 100 μL transfer from row 2 to row 3. This procedure was repeated to serially dilute the rest of the rows of the microtiter plate, with the exception of the final row, to which no antibiotic was added (to check for growth of bacteria in the presence of compound alone). The microtiter plate was then covered, placed in a covered damp plastic container and incubated under stationary conditions at 37° C. After 16-18 hrs minimum inhibitory concentration (MIC) values were recorded as the lowest concentration of antibiotic at which there was no visible growth of bacteria. Experiments were carried out in duplicate each time and repeated at least twice.
The difference in antibiotic MIC between the control (no compound) sample, and the samples containing each compound was recorded as the fold-reduction.
Day Cultures (6 h) were subcultured to 5×10^5 CFU/mL in cation adjusted Mueller-Hinton broth (CAMHB). […] One milliliter of the resulting solution was aliquoted into a separate culture tube and was dosed with antibiotic so that the resulting concentration was the highest desirable concentration to be tested. Bacteria treated with antibiotic alone were used as a control. Row one of a 96-well plate was filled with 200 μL of the antibiotic/compound solution, and the remaining rows were filled with 100 μL of the remaining 4 mL bacterial subculture. The wells in row one were mixed five times before 100 μL was transferred to the following row (row two). Row two was then mixed five times, and 100 μL was transferred to row three. This process was repeated until the second to last row had been reached. The last row is left unexposed to antibiotic in order to serve as a negative control. The antibiotic only treated bacteria was plated by aliquoting 200 μL of the treated bacteria into row one and filling the remaining rows with untreated bacteria from the original bacteria subculture. The rows were mixed in the same way as described above. Plates were covered with Glad Press n'Seal and were incubated under stationary conditions at 37° C. for 16 hours. MIC values were recorded as the lowest concentration at which no bacterial growth was observed. Fold reductions were determined by comparison of the compound treated wells with the antibiotic only treated control wells.

The subject of assay [2] is A. baumannii mutant AB522. In words: MIC against Tn-seq transposon mutant AB522. The class given is cell-based. The note with it: Acinetobacter baumannii. As for the experimental part:
(§1) During individual MIC screening, two mutants, AB522 and AB1310, were identified due to their increased sensitivity to the three macrolide antibiotics and vancomycin when compared to AB 5075 (Table 17).
(§2) Day Cultures (6 h) were subcultured to 5×10^5 CFU/mL in cation adjusted Mueller-Hinton broth (CAMHB). Aliquots (1 mL) were placed in culture tubes, and compound was added from 100 mM stock solutions, such that the compound concentration equaled the highest concentration tested (200 μM or 64 μg/mL). Samples were then aliquoted (200 μL) into the first row of wells of a 96-well plate, with all remaining wells being filled with 100 μL of initial bacterial subculture. The wells in row one were mixed five times before 100 μL was transferred to the following row (row two). Row two was then mixed five times, and 100 μL was transferred to row three. This processed was repeated until the final row had been mixed. This process provided a serial dilution of the compound. Plates were covered with Glad Press n'Seal and were incubated under stationary conditions at 37° C. for 16 hours. MIC values were recorded as the lowest concentration at which no bacterial growth was observed.

Assay [3] has as its system A. baumannii mutant AB1310. In words: MIC against Tn-seq transposon mutant AB1310. It counts as cell-based. The note with it: Acinetobacter baumannii. Here is the method: as §1, §2
A further assay relates to AB5075. In words: H33342 accumulation assay (efflux). The class given is cell-based, Acinetobacter baumannii. The note with it: for H33342 accumulation, fluorescence at 355 and 460 nm: 25 μM CCCP, immediately following exposure. As for the experimental part: In addition to the evaluation of the relationship between compounds 1 and 4 and colistin, the impact of compound 1 on efflux was evaluated using AB5075 and a bisBenzimide H33342 trihydrochloride (H33342) accumulation assay. Using a procedure adapted from Coldham et al. (A 96-well plate fluorescence assay for assessment of cellular permeability and active efflux in Salmonella enterica serovar Typhimurium and Escherichia coli. J Antimicrob Chemother, 2010. 65(8): p. 1655-63) and Richmond et al. (Efflux in Acinetobacter baumannii can be determined by measuring accumulation of H33342 (bis-benzamide). J Antimicrob Chemother, 2013. 68(7): p. 1594-600), the effect of no treatment, a known inhibitor carbonyl cyanide-m-chlorophenyl hydrazone (CCCP), and compound 1 on efflux was analyzed over 30 minutes and in two different treatment variations. Fluorescence was read using excitation and emission filters of 355 and 460 nm, and the values were processed in excel. The first analysis was performed immediately after treating the bacteria with compound 1 at both 10 and 30 μM and CCCP at 25 μM.
The second analysis was performed after exposing the bacteria to compound 1 at 30 μM for 5-hours shaking at 37° C.

In assay [4] the test system is A. baumannii strain 5075 (AB5075). In words: Broth microdilution MIC determination of compound alone. The class given is cell-based. The note with it: Acinetobacter baumannii; compound alone; AB5075; read-out: MIC. As for the experimental part: Our initial screening began by testing a diverse selection of 2-AI compounds from our internal library for their minimal inhibitory concentrations (MIC) against A. baumannii isolate 5075.
as §2
A general note: In broth dilution the organism is exposed to a series of concentrations in liquid medium.

In the next assay the test system is AB 5075. Put plainly: Backlight assay for membrane permeability. The note with it: AB5075. It counts as cell-based, Acinetobacter baumannii. As for the experimental part:
The assay was initially performed at 10, 20 and 30 μM with compounds 1 and 4 (Table 16). […] When the concentration is lowered to 20 μM, the percent of membrane disrupted also decreases to 78% and 83% respectively. When further decreasing the concentration to 10 μM, the membrane disruption decreases to 39 and 44% respectively. Due to the similar structure and lack of potentiation activity, compound 25 was screened at 10, 20 and 30 μM to compare membrane permeability with that of active compounds. The percent disruption was less than seen with compounds 1 and 4 being 53, 54 and 60% respectively.

Where [5] appears, read: compound at 60 μM vs antibiotic alone.

In the case of `CC[C@H]1OC(=O)[C@H](C)[C@@H](O[C@H]2C[C@@](C)(OC)[C@@H](O)[C@H](C)O2)[C@H](C)[C@@H](O[C@@H]2O[C@H](C)C[C@H](N(C)C)[C@H]2O)[C@](C)(O)C[C@@H](C)CN(C)[C@H](C)[C@@H](O)[C@]1(C)O` [Azithromycin, azithromycin], the figures for the MIC in assay [1], in assay [2] and in assay [3] were 64 µg/mL, 4 µg/mL (≈ 5.34 µM) and 4 µg/mL (≈ 5.34 µM), respectively.
On to `N#CC(C#N)=NNc1cccc(Cl)c1` [CCCP, carbonyl cyanide-m-chlorophenyl hydrazone, reference compound], for which the “H33342 accumulation, fluorescence at 355 and 460 nm” value is 42,713.8 ± 10,482.1 in the assay with AB5075 (time 0 minutes), 50,618.3 ± 9,944.3 in the assay with AB5075 (time 10 minutes), 50,928.8 ± 6,944.8 in the assay on AB5075 (time 20 minutes) and 48,907.2 ± 4,873 with AB5075 (time 30 minutes). For the same molecule, the “change in H33342 fluorescence over 30 minutes” value with AB5075 (immediately after treating, compound 1 at both 10 and 30 μM, CCCP at 25 μM) is “a notable increase in fluorescence”.
With `Cl.Nc1ncc(CCCCCc2ccccc2)[nH]1` [Compound 13], the MIC in assay [4] stood at 200 µM. The “Fold reduction (erythromycin MIC)” value in assay [1] (compound at 30 μM vs antibiotic alone) worked out at 4 fold.
For `Nc1nc(-c2ccc(NC(=O)c3cccc(F)c3)cc2)c[nH]1` [Compound 14], the MIC in assay [4] was > 200 µM. In addition, the “Fold reduction (erythromycin MIC)” value in assay [1] (setting [5]) stood at 8 fold.
For `Nc1nc(-c2ccc(NC(=O)c3cc(F)cc(F)c3)cc2)c[nH]1` [Compound 15] the same measures were 200 µM (≈ 62.9 µg/mL) and 8 fold.
For `Nc1nc(-c2ccc(NC(=O)c3ccc(Cl)cc3)cc2)c[nH]1` [Compound 16], the MIC in assay [4] is > 200 µM. Moreover, the “Fold reduction (erythromycin MIC)” value in assay [1] (setting [5]) came out at 4 fold.
In the same order, the values of `Nc1nc(-c2ccc(NC(=O)c3c(F)c(F)c(F)c(F)c3F)cc2)c[nH]1` [Compound 17] are > 200 µM and 4 fold.
Regarding `Nc1nc(-c2ccc(NC(=O)c3ccc(Br)cc3)cc2)c[nH]1` [Compound 18], the MIC in assay [4] is > 200 µM. In assay [1] (setting [5]), the “Fold reduction (erythromycin MIC)” value is listed as 4 fold.
Turning to `Nc1nc(-c2ccc(NC(=O)c3cccc(Br)c3)cc2)c[nH]1` [Compound 19], the MIC in assay [4] is > 200 µM. Further, the “Fold reduction (erythromycin MIC)” value in assay [1] (setting [5]) was 8 fold.
Consider `Nc1nc(-c2ccc(NC(=O)c3ccc(Cl)cc3Cl)cc2)c[nH]1` [Compound 20], for which the MIC in assay [4] is > 200 µM. Also, in assay [1] (setting [5]), the “Fold reduction (erythromycin MIC)” value is reported as 4 fold.
`Nc1nc(-c2ccc(NC(=O)c3ccc(Br)cc3F)cc2)c[nH]1` [Compound 21]: the MIC in assay [4] is > 200 µM. Also, in assay [1] (setting [5]), the “Fold reduction (erythromycin MIC)” value worked out at 8 fold.
In the case of `Nc1nc(-c2ccc(NC(=O)c3ccc(I)cc3)cc2)c[nH]1` [Compound 25], the MIC in assay [4] is > 200 µM. In addition, the “Disrupted bacterial membrane (%)” value in the assay with AB 5075 (compound at 10 μM) is 53% and 53.7%; in the assay with AB 5075 (compound at 20 μM), 54%; in the assay with AB 5075 (compound at 30 μM), 60%.
Regarding `CC[C@H]1OC(=O)[C@H](C)[C@@H](O[C@H]2C[C@@](C)(OC)[C@@H](O)[C@H](C)O2)[C@H](C)[C@@H](O[C@@H]2O[C@H](C)C[C@H](N(C)C)[C@H]2O)[C@](C)(O)C[C@@H](C)C(=O)[C@H](C)[C@@H](O)[C@]1(C)O` [Erythromycin], the MIC is 32 µg/mL in assay [1], 2 µg/mL (≈ 2.73 µM) in assay [2] and 4 µg/mL (≈ 5.45 µM) in assay [3].
